According to patent publication US20110059015A1, “VACCINE” (priority 2002, published 2011):

Test system: Fab S8-gp120 III-B binding
Assay: Peptide inhibition of gp120-Fab S8 binding (ELISA)
Design: species or system HIV-1
Experimental: Peptides from selected phage clones were synthesised by Isogen (Maarssen, The Netherlands). For binding competition experiments, purified S8 Fab (1 μg/ml) was incubated (4° C., 4 h) with several dilutions of the corresponding peptide before addition to gp120III-B (2 μg/ml)-coated microtiter wells.

[1] = peptide 50 μg/ml (124R1: a similar concentration), Fab S8 1 μg/ml

Sequence | inhibition of Fab S8-gp120 binding [1] [%] | inhibition of Fab S8-gp120 binding (peptide concentration not given) [%]
FLQPPDFSHLPP [Fab 124R1] | 15 | –
GIQLANPPRLYG [Fab 124R9] | 50 | –
LLADTTHHRPWT [Fab 124R4] | 50 | –
QEVGKAMYAPPI [ENV-9, peptide corresponding to gp120 amino acid residues 428-439] | – | 50
